Non-standard residues stand in square brackets, D forms with d. Residues, ends and D or L forms follow the SMILES beside them.
Columns and labels:
[1] = method code SF, from DOI: 10.1021/jm300192x, PMID: 22519985; conditions: pH 7.4
[2] = method code SF-RC, from DOI: 10.1002/jlcr.1930
[3] = not given; remark: listed apart in the source
[4] = not given; remark: listed apart in the source
[5] = not given; remark: listed apart in the source
[6] = method code SF, from DOI: 10.1111/j.1365-2958.1992.tb00853.x, PMID: 1640833
[7] = method code SF-HPLC, from Pan, J.; Wu, Z.; Hui, A.; Tao, M. (2011). Determination of partition coefficients of ginkgolide beta and its prodrug. Shizhen Guo Yi Guo Yao, 22(10)2397-2400.
[8] = method code SF-RC, from DOI: 10.1021/es60172a005, PMID: 22280000
[9] = method code SF-HPLC, from DOI: 10.1002/jps.23218, PMID: 22644947; conditions: pH 7.0
[10] = method code SF-AS, from PMID: 4096735; conditions: pH 7.4
[11] = not given; remark: listed apart in the source
[12] = not given; remark: listed apart in the source
[13] = not given; remark: listed apart in the source
[14] = method code SF-HPLC, from DOI: 10.1002/jps.23034, PMID: 22213574; conditions: pH 7.4
[15] = method code SF-AS, from DOI: 10.1002/jps.2600720808, PMID: 6620139
[16] = not given; remark: listed apart in the source
[17] = not given; remark: listed apart in the source
[18] = not given; remark: listed apart in the source
[19] = not given; remark: listed apart in the source
[20] = method code SF-HPLC, from DOI: 10.1016/0168-3659(92)90067-2
[21] = method code SF-HPLC, from DOI: 10.1016/s0223-5234(02)01360-0, PMID: 12008054; conditions: pH 7.4
[22] = not given; remark: listed apart in the source
[23] = method code SF-HPLC, from DOI: 10.1016/j.ejps.2012.04.024, PMID: 22609526
[24] = method code SF-HPLC, from DOI: 10.1002/jps.23140, PMID: 22499243; conditions: pH 7.4
[25] = not given; remark: listed apart in the source
[26] = method code SF-HPLC, from DOI: 10.1016/j.ijpharm.2010.12.025, PMID: 21185925
[27] = method code SF-HPLC, from DOI: 10.1211/0022357011778025, PMID: 11732751; conditions: pH 5.0
[28] = method code SF-HPLC, from Suo, X.; Li, M.; Wang, Y.; Zhu, S. (2010). Study on oil-water partition coefficient of hydroxycamptothecin and its absorption efficiency in rat small intestine. Chinese Traditional Patent Medicine, …; conditions: pH 7.4
[29] = method code SF-RC, from DOI: 10.1111/j.2042-7158.1981.tb11724.x
[30] = method code SF-RC, from DOI: 10.1021/jm050166g.s001, PMID: 16162001; conditions: pH 7.4
[31] = not given; remark: listed apart in the source
[32] = method code SF-AS, from DOI: 10.1021/jm00392a004, PMID: 3625703; conditions: pH 6.9
[33] = not given; remark: listed apart in the source
[34] = method code SF-AS, from DOI: 10.1021/jm00371a026, PMID: 6425501; conditions: pH 7.4
[35] = method code SF-AS, from DOI: 10.1016/0304-4165(87)90236-4, PMID: 2889474
[36] = method code SF-AS, from DOI: 10.1111/j.2042-7158.1983.tb02957.x, PMID: 6135774
[37] = method code SF, from DOI: 10.1016/j.bmcl.2012.08.112, PMID: 23010264; conditions: pH 7.4
[38] = method code G-RC, from DOI: 10.1016/0300-483x(85)90031-9, PMID: 4049435
[39] = not given; remark: listed apart in the source
[40] = not given; remark: listed apart in the source
[41] = not given; remark: listed apart in the source

With OCC1OC(c2ccc(N3CCc4ccccc43)cc2)C(O)C(O)C1O (configuration not stated) the logD [1] was 2.3.

Molecule O[C@H](CNC[C@H](O)[C@H]1COc2ccccc2O1)[C@@H]1COc2ccccc2O1 has a logP of 2.45.

Work on COc1cc2c(cc1OS(N)(=O)=O)CC[C@@H]1[C@@H]2CC[C@]2(C)[C@@H](OS(N)(=O)=O)CC[C@@H]12 yielded a logP [2] of 2.25.

CN(C)c1ccc(-c2ccc3cc(OCC(O)CF)ccc3n2)cc1 (configuration not stated) gave a logP [3] of 3.03.

Work on CN(C)CCO[C@]1(c2ccccc2)C[C@H]2CC[C@]1(C)C2(C)C yielded a logP [4] of 5.9.

For Cc1cc2c(-c3ccccn3)c[nH]c2c(C(=O)Nc2ncccc2C)n1, the logP [5] was 4.7.

C[C@]12CCC(=O)C[C@@H]1CC[C@@H]1[C@@H]2CC[C@]2(C)C(=O)CC[C@@H]12 gave a logP [6] of 3.6.

Work on CC1C(=O)OC2C(O)C34C5CC(C(C)(C)C)C36C(OC(=O)C6O)OC4(C(=O)O5)C12O (configuration not stated) yielded a logP [7] of 0.59.

For Cc1ccc2cc3c(ccc4ccccc43)c3c2c1CC3, the logP [8] was 6.42.

CCOC(=O)N(CCN(C(=O)OCC)C(=O)OCC)CCN(C(=O)OCC)C(=O)OCC showed a logD [9] of 2.3.

CCOC(=O)CCCCOc1ccc(-c2nc3c(N)nc(N)nc3nc2N)cc1 gave a logD [10] of 0.8.

Work on CC(C)CC(O)C(O)C(CC1CCCCC1)NC(=O)OC(C)(C)C (configuration not stated) yielded a logP [11] of 3.98.

Molecule COc1cc(NC(C)=O)c(I)cc1C(=O)NCCCCN1CC2CCC1C2 (configuration not stated) has a logP [12] of 0.8.

C=CCN1CC[C@@]23CCCC[C@H]2[C@@H]1Cc1ccc(O)cc13 showed a logP [13] of 3.48.

Molecule O=S(=O)(c1ccc(C(F)(F)F)cc1)N1c2cc(F)c(F)cc2-c2[nH]ncc2C1C1CC1 (configuration not stated) has a logD [14] of 3.91.

For C[C@]12CCC(=O)C=C1CC[C@@H]1[C@@H]2CC[C@@]2(C)[C@H]1CC[C@]2(C)O, the logP [15] was 3.36.

CN1CCN(CC(=O)N2c3ccccc3C(=O)Nc3cccnc32)CC1 showed a logP [16] of 0.1.

For CCCCC[C@H](O)/C=C/[C@H]1[C@H](O)CC(=O)[C@@H]1C/C=C\CCCC(=O)O, the logP [17] was 2.9.

For Cc1ccc(/C(=C\CN2CCCC2)c2ccccn2)cc1, the logP [18] was 3.87.

Work on N#CCNC(=O)[C@@H]1CCCC[C@H]1C(=O)N1CCN(c2ccccc2)CC1 yielded a logP [19] of 1.8.

CC(=O)N[C@H](Cc1ccc(O)cc1)C(=O)N[C@H](Cc1ccc(O)cc1)C(N)=O (Ac-[dY]-[dY]-NH2) showed a logP [20] of -0.16.

For COc1cc2nc(N3CCN(C(=O)C4CCCO4)CC3)nc(N)c2cc1OC (configuration not stated), the logD [21] was 1.14.

Work on CSc1nc(Nc2ccccc2)c2cnn(CCCl)c2n1 yielded a logP [22] of 5.49.

Molecule O=c1c(O[C@@H]2OC[C@@H](O)[C@H](O)[C@H]2O)c(-c2ccc(O)c(O)c2)oc2cc(O)cc(O)c12 has a logP [23] of 1.75.

With CCCCCCCCCCCCOP1(=O)OCC(Cn2ccc(N)nc2=O)O1 (configuration not stated) the logD [24] was 3.89.

With COc1cc2c(cc1O)CC[C@@H]1C2CC[C@]2(C)[C@@H](O)CC[C@@H]12 (stereo in doubt) the logP [25] was 2.86.

For CCCc1nc(C[C@H](NC(=O)[C@@H]2CCC(=O)N2)C(=O)N2CCC[C@H]2C(N)=O)c[nH]1, the logP [26] was -1.07.

With CCN(CC)C(=O)C(C#N)=Cc1cc(OC(=O)C(C)(C)C)c(O)c([N+](=O)[O-])c1 the logD [27] was 2.24.

With CC[C@@]1(O)C(=O)OCc2c1cc1n(c2=O)Cc2cc3cc(O)ccc3nc2-1 the logD [28] was 1.33.

Work on CCC(=O)O[C@H]1CC[C@H]2[C@@H]3CCC4=CC(=O)CC[C@]4(C)[C@H]3CC[C@]12C yielded a logP [29] of 3.72.

CN(C)c1ccc(C=Cc2ccc(OCC(CO)CF)cc2)cc1 (configuration not stated) showed a logD [30] of 3.14.

Work on CCN(CC)CCCN1c2ccccc2Sc2ccc(Cl)cc21 yielded a logP [31] of 6.46.

With CCCCCCCCCC1(c2ccncc2)CCC(=O)NC1=O (configuration not stated) the logD [32] was 4.64.

CO[C@H]1C[C@]2(C)[C@@H](O)CC[C@H]2[C@@H]2CCc3cc(O)ccc3[C@H]21 showed a logP [33] of 2.72.

With CO[C@@]12[C@H](COC(N)=O)C3=C(C(=O)C(C)=C(Nc4cccnc4)C3=O)N1C[C@@H]1N[C@@H]12 the logD [34] was 0.52.

C=C1C(=O)OC2CC(C)C3C=CC(=O)C3(C)C(OC(=O)C=C(C)C)C12 (configuration not stated) showed a logP [35] of 1.47.

In the case of COc1cc(N)c(Cl)cc1C(=O)NC1CCN(Cc2ccccc2)CC1, the logP [36] is reported as 2.99.

COCC(C1CC1)n1cc(Cl)nc(Nc2cc(C)c(OC)cc2C)c1=O (configuration not stated) gave a logD [37] of 4.4.

O=[N+]([O-])c1c2ccccc2c2ccc3cccc4ccc1c2c43 showed a logP [38] of 5.44.

CCOc1ccccc1OCCN[C@H](C)Cc1ccc(OC)c(S(N)(=O)=O)c1 showed a logP [39] of 2.2.

O=C(NN(C(=O)c1ccccc1)c1ccccc1)c1ccccc1 showed a logP [40] of 3.32.

Molecule C[C@H]1[C@H](N2CCS(=O)(=O)CC2)O[C@@H]2O[C@@]3(C)CC[C@H]4[C@H](C)CC[C@@H]1[C@@]24OO3 has a logP [41] of 2.49.
